Counter-ions that a name gives are not always drawn.

One assay addresses T1, human calcium receptor (Homo sapiens, UniProt P41180).
T1 construct: expressed in transfected cells
T1 sequence (P41180 20-1078): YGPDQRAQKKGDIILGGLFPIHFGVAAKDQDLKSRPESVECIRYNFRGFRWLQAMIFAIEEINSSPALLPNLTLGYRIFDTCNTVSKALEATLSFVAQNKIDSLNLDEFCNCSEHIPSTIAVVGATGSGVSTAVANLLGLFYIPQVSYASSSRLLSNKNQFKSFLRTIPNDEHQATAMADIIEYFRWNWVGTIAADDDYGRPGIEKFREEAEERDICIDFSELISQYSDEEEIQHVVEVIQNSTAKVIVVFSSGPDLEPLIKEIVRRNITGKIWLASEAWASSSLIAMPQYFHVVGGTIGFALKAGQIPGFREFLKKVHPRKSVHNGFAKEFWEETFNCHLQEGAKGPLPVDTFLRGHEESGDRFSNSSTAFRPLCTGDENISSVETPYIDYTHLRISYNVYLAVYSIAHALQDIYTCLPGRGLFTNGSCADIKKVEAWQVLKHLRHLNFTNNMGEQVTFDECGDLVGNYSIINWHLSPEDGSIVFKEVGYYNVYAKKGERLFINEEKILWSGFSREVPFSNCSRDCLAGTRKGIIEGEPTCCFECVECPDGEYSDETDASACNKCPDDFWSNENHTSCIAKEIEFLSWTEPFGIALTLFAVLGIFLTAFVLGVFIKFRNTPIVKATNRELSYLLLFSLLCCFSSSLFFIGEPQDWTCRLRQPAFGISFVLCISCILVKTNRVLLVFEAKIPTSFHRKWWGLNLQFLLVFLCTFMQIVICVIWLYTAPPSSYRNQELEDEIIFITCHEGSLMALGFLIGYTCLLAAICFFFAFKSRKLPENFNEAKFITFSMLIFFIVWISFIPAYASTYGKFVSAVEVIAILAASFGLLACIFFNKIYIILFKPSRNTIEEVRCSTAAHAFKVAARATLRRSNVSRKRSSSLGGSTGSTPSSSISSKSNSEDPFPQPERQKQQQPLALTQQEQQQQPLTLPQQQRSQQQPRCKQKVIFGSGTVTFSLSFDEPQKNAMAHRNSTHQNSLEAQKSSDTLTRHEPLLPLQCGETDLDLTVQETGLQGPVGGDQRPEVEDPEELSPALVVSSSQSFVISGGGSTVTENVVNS
As to the kind of experiment: Calcium Receptor Inhibitor Assay. The assay is classed as cell-based.
Conditions: not given
Here is the method: This example illustrates the use of the Calcium Receptor Inhibitor Assay. […] Res. 10 Suppl. […] Intracellular Ca^2+ was measured using fluo-3, a fluorescent calcium indicator.
The procedure was as follows:
1. Cells were maintained in T-150 flasks in selection media (DMEM supplemented with 10% fetal bovine serum and 200 μg/mL hygromycin B), under 5% CO2:95% air at 37° C. and were grown up to 90% confluency.
2. The medium was decanted and the cell monolayer was washed twice with phosphate-buffered saline (PBS) kept at 37° C. After the second wash, 6 mL of 0.02% EDTA in PBS was added and incubated for 4 minutes at 37° C. Following the incubation, cells were dispersed by gentle agitation.
3. Cells from 2 or 3 flasks were pooled and pelleted (100×g). The cellular pellet was resuspended in […] of SPF-PCB+ and pelleted again by centrifugation. This washing was done twice.
SPF-PCB was made up and stored at 4° C. On the day of use, SPF-PCB was supplemented with 1 mg/mL of D-glucose and 1 mM CaCl2 and then split into two fractions. To one fraction, bovine serum albumin (BSA; fraction V, ICN) was added at 5 mg/mL (SPF-PCB+). This buffer was used for washing, loading and maintaining the cells. The BSA-free fraction was used for diluting the cells in the cuvette for measurements of fluorescence.
5. Following the incubation period, the cells were pelleted by centrifugation. The resulting pellet was washed with SPF-PCB+. After this washing, cells were resuspended in SPF-PCB+ at a density of 1–2×10^6 cells/mL.
6. For recording fluorescent signals, 300 μL of cell suspension were diluted in 1.2 mL of SPF buffer containing 1 mM CaCl2 and 1 mg/mL of D-glucose. Measurements of fluorescence were performed at 37° C. with constant stirring using a spectrofluorimeter. […] To calibrate fluorescence signals, digitonin (5 mg/mL in ethanol) was added to obtain Fmax, and the apparent Fmin was determined by adding Tris-EGTA (2.5 M Tris-Base, 0.3 M EGTA).
7. To determine the potential calcilytic activity of test compounds, cells were incubated with test compound (or vehicle as a control) for 90 seconds before increasing the concentration of extracellular Ca^2+ from 1 to 2 mM. Calcilytic compounds were detected by their ability to block, in a concentration-dependent manner, increases in the concentration of intracellular Ca^2+ elicited by extracellular Ca^2+.
Broadly, the IC50 is the concentration that gives 50% inhibition. As for `COc1ccc(CC(C)(C)NCC(O)COC(C)C)cc1` (stereo not shown) [Compound 27, N-(2-Hydroxy-3-isoproproxypropyl)-1,1-dimethyl-2-(4-methoxyphenyl)ethylamine], the IC50 was below 10 µM.

`C=CCOCC(O)CNC(C)(C)Cc1ccc(OC)cc1` (stereo not shown) [Compound 29, N-(2-Hydroxy-3-allyloxypropyl)-1,1-dimethyl-2-(4-methoxyphenyl)ethylamine]: the IC50 is below 50 µM.

`CCCCCCCCC(O)CNC(C)(C)Cc1ccc(OC)cc1` (stereo not shown) [Compound 69, N-(2-Hydroxydecanyl)-1,1-dimethyl-2-(4-methoxyphenyl)ethylamine]: the IC50 was below 1 µM.

`COc1ccc(CC(C)(C)NCC(O)COC(C)(C)C)cc1` (stereo not shown) [Compound 25, N-(2-Hydroxy-3-t-butoxypropyl)-1,1-dimethyl-2-(4-methoxyphenyl)ethylamine]: the IC50 is below 50 µM.

Turning to `COc1ccc(CC(C)(C)NCC(O)COCC2CCCCC2)cc1` (stereo not shown) [Compound 75, N-(2-Hydroxy-3-cyclohexylmethoxypropyl)-1,1-dimethyl-2-(4-methoxyphenyl)ethylamine Hydrochloride], the IC50 is below 10 µM.

Regarding `COc1ccc(CC(C)(C)NCC(O)CSc2ccccc2)cc1` (stereo not shown) [Compound 68, N-(2-Hydroxy-3-thiophenylpropyl)-1,1-dimethyl-2-(4-methoxyphenyl)ethylamine], the IC50 was below 10 µM.

The same assay, now with this note: HEK 293 4.0–7 cells stably expressing the human calcium receptor; fluo-3; read-out: IC50 for blocking increases of intracellular Ca2+ elicited by extracellular Ca2+.
Consider `COc1ccc(CC(C)(C)NCC(O)COc2cc(OC)cc(OC)c2)cc1` (stereo not shown) [Compound 133, N-[2-hydroxy-3-(3,5-dimethoxyphenoxy)propyl]-1,1-dimethyl-2-(4-methoxyphenyl)ethylamine Hydrochloride], for which the IC50 was below 1 µM.

Consider `COc1ccc(CC(C)(C)NCC(O)COc2ccccc2NC(C)=O)cc1` (stereo not shown) [Compound 52, N-[2-hydroxy-3-(2-acetamidophenoxy)propyl]-1,1-dimethyl-2(4-methoxyphenyl)ethylamine], for which the IC50 was above 50 µM.

For the molecule `COc1ccc(CC(C)(C)NCC(O)COc2ccccc2OC)cc1` (stereo not shown) [Compound 49, N-[2-Hydroxy-3-(2-methoxyphenoxy)propyl]-1,1-dimethyl-2-(4-methoxyphenyl)ethylamine Hydrochloride], the IC50 is below 10 µM.

For the molecule `COc1ccc(CC(C)(C)NCC(O)COc2cc(Cl)ccc2Cl)cc1` (stereo not shown) [Compound 140, N-[2-hydroxy-3-(2,5-dichlorophenoxy)propyl]-1,1-dimethyl-2-(4-methoxyphenyl)ethylamine Hydrochloride], the IC50 is below 1 µM.

As for `CCCc1ccc(OCC(O)CNC(C)(C)Cc2ccc(OC)cc2)cc1` (stereo not shown) [Compound 149, N-[2-hydroxy-3-(4-n-propylphenoxy)propyl]-1,1-dimethyl-2-(4-methoxyphenyl)ethylamine Hydrochloride], the IC50 is below 1 µM.

With `CCc1ccc(CC(C)(C)NCC(O)COc2ccccc2)cc1` (stereo not shown) [Compound 110, N-(2-Hydroxy-3-phenoxypropyl)-1,1-dimethyl-2-(4-ethylphenyl)ethylamine Hydrochloride], the 50% inhibitory concentration (IC50) is below 10 µM.

Regarding `COc1ccc(CC(C)(C)NCC(O)COc2ccccc2-c2ccccc2)cc1` (stereo not shown) [Compound 60, N-[2-hydroxy-3-(2-phenylphenoxy)propyl]-1,1-dimethyl-2-(4-methoxyphenyl)ethylamine], the IC50 is above 50 µM.

With `COc1ccc(CC(C)(C)NCC(O)COc2ccccc2)cc1F` (stereo not shown) [Compound 128, N-(2-hydroxy-3-phenoxypropyl)-1,1-dimethyl-2-(3-fluoro-4-methoxyphenyl) ethylamine], the IC50 is below 10 µM.

For `CCOc1ccc(CC(C)(C)NCC(O)COc2ccccc2)cc1` (stereo not shown) [Compound 102, N-(2-hydroxy-3-phenoxypropyl)-1,1-dimethyl-2-(4-ethoxyphenyl)ethylamine], the IC50 is above 50 µM.

Turning to `COc1ccc(CC(C)(C)NC[C@@H](O)COc2cccc3ccccc23)cc1` (single isomer, unassigned) [Compound 105, Hydrochloride], the IC50 was below 1 µM.

With `CCc1ccc(OCC(O)CNC(C)(C)Cc2ccc(OC)cc2)cc1` (stereo not shown) [Compound 141, N-[2-hydroxy-3-(4-ethylphenoxy)propyl]-1,1-dimethyl-2-(4-methoxyphenyl)ethylamine Hydrochloride], the IC50 is below 1 µM.

`CCOc1cccc(OCC(O)CNC(C)(C)Cc2ccc(OC)cc2)c1` (stereo not shown) [Compound 147, N-[2-hydroxy-3-(3-ethoxyphenoxy)propyl]-1,1-dimethyl-2-(4-methoxyphenyl)ethylamine Hydrochloride]: the IC50 was below 10 µM.

`COc1ccc(CC(C)(C)NC[C@@H](O)COc2cccc(Cl)c2C#N)cc1` [Compound 109, (R)—N-[2-Hydroxy-3-(3-chloro-2-cyanophenoxy)propyl]-1,1-dimethyl-2-(4-methoxyphenyl)-ethylamine Hydrochloride]: the IC50 was below 1 µM.

For the molecule `Cc1ccc(CC(C)(C)NCC(O)COc2ccccc2)cc1C` (stereo not shown) [Compound 121, N-(2-Hydroxy-3-phenoxy)propyl)-1,1-dimethyl-2-(3,4-dimethylphenyl)ethylamine Hydrochloride], the IC50 was below 1 µM.

Regarding `COc1ccc(CC(C)(C)NCC(O)COc2ccccc2C)cc1` (stereo not shown) [Compound 8, N-[2-Hydroxy-3-(2-methylphenoxy)propyl]-1,1-dimethyl-2-(4-methoxyphenyl)ethylamine Hydrochloride], the IC50 was below 10 µM.

Consider `CC(C)(Cc1ccccc1)NCC(O)COc1ccc(C(C)(C)C)cc1` (stereo not shown) [Compound 54], for which the IC50 was above 50 µM.

In the case of `Cc1ccc(CC(C)(C)NCC(O)COc2ccccc2)cc1` (stereo not shown) [Compound 98, N-(2-Hydroxy-3-phenoxypropyl)-1,1-dimethyl-2-(4-methylphenyl)ethylamine Hydrochloride], the IC50 is below 10 µM.

Turning to `CC(C)(Cc1ccc2ccccc2c1)NCC(O)COc1ccccc1` (stereo not shown) [Compound 120, N-(2-Hydroxy-3-phenoxypropyl)-1,1-dimethyl-2-(2-naphthyl)ethylamine Hydrochloride], the IC50 was below 1 µM.

For the molecule `COc1ccc(CC(C)(C)NCC(O)COCC23CC4CC(CC(C4)C2)C3)cc1` (stereo not shown) [Compound 74, N-[2-Hydroxy-3-(1-adamantylmethoxy)propyl]-1,1-dimethyl-2-(4-methoxyphenyl)ethylamine Hydrochloride], the IC50 was below 1 µM.

Take `CC(C)(Cc1ccccc1)NCC(O)COc1ccccc1` (stereo not shown) [Compound 56, N-(2-Hydroxy-3-phenoxypropyl)-1,1-dimethyl-2-phenylethylamine Hydrochloride]: the IC50 is below 50 µM.

For the molecule `COc1ccc(CC(C)(C)NCC(O)COc2ccc3ccccc3c2)cc1` (stereo not shown) [Compound 35, N-[2-Hydroxy-3-(2-naphthoxy)propyl]-1,1-dimethyl-2-(4-methoxyphenyl)ethylamine Hydrochloride], the IC50 is below 10 µM.

For `CCCc1ccccc1OCC(O)CNC(C)(C)Cc1ccc(OC)cc1` (stereo not shown) [Compound 148, N-[2-hydroxy-3-(2-n-propylphenoxy)propyl]-1,1-dimethyl-2-(4-methoxyphenyl)ethylamine Hydrochloride], the IC50 was below 1 µM.

Values taken from US7202261B2, “Calcilytic compounds” (NPS Pharmaceuticals, Inc., priority 1996, dated 2007).
